Results taken from patent publication US11091501B2, “Heterocyclic compounds as RSV inhibitors” (Enanta Pharmaceuticals, Inc., priority 2017, dated 2021).

system: Human RSV-A (“Long” strain); assay: RSV in vitro cytoprotection assay (CPE, ATPlite) in HEp-2 cells; assay type: cell-based; settings: human respiratory syncytial virus, 96 h; HEp-2 cells, 4-day incubation, ATPlite readout; read-out: Human RSV-A (“Long” strain) EC50
How it was run: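 HEp-2 cells (8,000/well) given 2-fold serial compound dilutions in duplicate, then infected with sucrose-stabilised RSV-A Long stock. After 4 days, cell viability read by ATPlite luminescence, with a parallel uninfected plate for cytotoxicity. EC50 binned A<0.01 μM, B 0.01-0.05 μM, C>0.05 μM.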

Compared with `Cc1cnc(N2CC3(CCOCC3)C2)c(C(=O)Nc2ccc(C(=O)N3CCc4c(sc(-c5nc6cccc(Cl)c6[nH]5)c4F)-c4ccccc43)cc2)c1` [Example 202], `Cc1cnc(N2CC3(CCOCC3)C2)c(C(=O)Nc2ccc(C(=O)N3CCc4c(sc(-c5nc6cccc(F)c6[nH]5)c4F)-c4ccccc43)cc2)c1` [Example 206] is lower in EC50: 10 to 50 nM for the first, under 10 nM for the second. The second is the more potent here.

First: Cc1cnc(N2CC3(CCOCC3)C2)c(C(=O)Nc2ccc(C(=O)N3CCc4c(sc(-c5nc6cccc(C(F)(F)F)c6[nH]5)c4F)-c4ccccc43)cc2)c1 [Example 203]
Second: Cc1cnc(N2CC3(CCOCC3)C2)c(C(=O)Nc2ccc(C(=O)N3CCc4c(sc(-c5nc6ccc(F)cc6[nH]5)c4F)-c4ccccc43)cc2)c1 [Example 207]
The EC50 of the first is higher: 10 to 50 nM for the first, under 10 nM for the second.

`Cc1cnc(N2CC3(CCOCC3)C2)c(C(=O)Nc2ccc(C(=O)N3CCc4c(sc(C(=O)Nc5c(C)cccc5C#N)c4F)-c4ccccc43)cc2)c1` [Example 204] and `Cc1cnc(N2CC3(CCOCC3)C2)c(C(=O)Nc2ccc(C(=O)N3CCc4c(sc(C(=O)Nc5c(C)cccc5C)c4F)-c4ccccc43)cc2)c1` [Example 208] cannot be ordered by EC50: under 10 nM for the first, under 10 nM for the second.

`Cc1cnc(N2CC3(CCOCC3)C2)c(C(=O)Nc2ccc(C(=O)N3CCc4c(sc(C(=O)Nc5ccccc5F)c4F)-c4ccccc43)cc2)c1` [Example 205] and `Cc1cnc(N2CC3(CCOCC3)C2)c(C(=O)Nc2ccc(C(=O)N3CCc4c(sc(C(=O)Nc5cccc(F)c5F)c4F)-c4ccccc43)cc2)c1` [Example 216] cannot be ordered by EC50: under 10 nM for the first, under 10 nM for the second.

First: Cc1cnc(N2CC3(CCOCC3)C2)c(C(=O)Nc2ccc(C(=O)N3CCc4c(sc(C(=O)Nc5ccc(F)cc5F)c4F)-c4ccccc43)cc2)c1 [Example 209]
Second: Cc1cnc(N2CC3(CCOCC3)C2)c(C(=O)Nc2ccc(C(=O)N3CCc4c(sc(C(=O)Nc5cc(F)ccc5F)c4F)-c4ccccc43)cc2)c1 [Example 212]
The EC50 of the first is lower: under 10 nM for the first, 10 to 50 nM for the second. The first is the more potent here.

`Cc1cnc(N2CC3(CCOCC3)C2)c(C(=O)Nc2ccc(C(=O)N3CCc4c(sc(C(=O)Nc5cccc(F)c5)c4F)-c4ccccc43)cc2)c1` [Example 210] and `Cc1cnc(N2CC3(CCOCC3)C2)c(C(=O)Nc2ccc(C(=O)N3CCc4c(sc(C(=O)Nc5ccc(F)cc5)c4F)-c4ccccc43)cc2)c1` [Example 217] cannot be ordered by EC50: under 10 nM for the first, under 10 nM for the second.

Compared with `Cc1cnc(N2CC3(CCOCC3)C2)c(C(=O)Nc2ccc(C(=O)N3CCc4c(sc(C(=O)Nc5ccccc5)c4F)-c4ccccc43)cc2)c1` [Example 211], `Cc1cnc(N2CC3(CCOCC3)C2)c(C(=O)Nc2ccc(C(=O)N3CCc4c(sc(C(=O)Nc5cccc(C)n5)c4F)-c4ccccc43)cc2)c1` [Example 229] is higher in EC50: under 10 nM for the first, 10 to 50 nM for the second.

`Cc1ccc(C(=O)Nc2ccc(C(=O)N3CCc4c(sc(C(=O)Nc5c(F)cccc5F)c4F)-c4ccccc43)cc2)c(N2CC3(CCOCC3)C2)n1` [Example 213] and `Cc1cc(C(=O)Nc2ccc(C(=O)N3CCc4c(sc(C(=O)Nc5c(F)cccc5F)c4F)-c4ccccc43)cc2)c(N2CC3(CCOCC3)C2)nc1C` [Example 220] cannot be ordered by EC50: under 10 nM for the first, under 10 nM for the second.

`Cc1ccc(C(=O)Nc2ccc(C(=O)N3CCc4c(sc(-c5nc6cccc(F)c6[nH]5)c4F)-c4ccccc43)cc2)c(N2CC3(CCOCC3)C2)n1` [Example 214] and `Cc1ccc(C(=O)Nc2ccc(C(=O)N3CCc4c(sc(C(=O)Nc5ncccc5F)c4F)-c4ccccc43)cc2)c(N2CC3(CCOCC3)C2)n1` [Example 218] cannot be ordered by EC50: under 10 nM for the first, under 10 nM for the second.

`Cc1cnc(N2CC3(CCOCC3)C2)c(C(=O)Nc2ccc(C(=O)N3CCc4c(sc(C(=O)Nc5ncccc5F)c4F)-c4ccccc43)cc2)c1` [Example 215] and `Cc1cnc(N2CC3(CCOCC3)C2)c(C(=O)Nc2ccc(C(=O)N3CCc4c(sc(C(=O)Nc5ncccc5C)c4F)-c4ccccc43)cc2)c1` [Example 226] cannot be ordered by EC50: under 10 nM for the first, under 10 nM for the second.

`Cc1cnc(N2CC3(CCOCC3)C2)c(C(=O)Nc2ccc(C(=O)N3CCc4c(sc(C(=O)Nc5nc(C)ccc5F)c4F)-c4ccccc43)cc2)c1` [Example 219] and `Cc1cnc(NC(=O)c2sc3c(c2F)CCN(C(=O)c2ccc(NC(=O)c4cc(C)cnc4N4CC5(CCOCC5)C4)cc2)c2ccccc2-3)c(F)c1` [Example 230] cannot be ordered by EC50: under 10 nM for the first, under 10 nM for the second.

`Cc1cc(C(=O)Nc2ccc(C(=O)N3CCc4c(sc(C(=O)Nc5ncccc5F)c4F)-c4ccccc43)cc2)c(N2CC3(CCOCC3)C2)nc1C` [Example 221] and `Cc1cnc(N2CC3(CCOCC3)C2)c(C(=O)Nc2ccc(C(=O)N3CCc4c(sc(C(=O)Nc5ncncc5F)c4F)-c4ccccc43)cc2)c1` [Example 222] cannot be ordered by EC50: under 10 nM for the first, under 10 nM for the second.

`Cc1cnc(N2CC3(CCOCC3)C2)c(C(=O)Nc2ccc(C(=O)N3CCc4c(sc(C(=O)Nc5ncc(C)s5)c4F)-c4ccccc43)cc2)c1` [Example 223] and `Cc1cnc(N2CC3(CCOCC3)C2)c(C(=O)Nc2ccc(C(=O)N3CCc4c(sc(C(=O)Nc5ncc(F)s5)c4F)-c4ccccc43)cc2)c1` [Example 224] fall in the same range of EC50: 10 to 50 nM for the first, 10 to 50 nM for the second.

First: Cc1cnc(N2CC3(CCOCC3)C2)c(C(=O)Nc2ccc(C(=O)N3CCc4c(sc(C(=O)Nc5ncc(C(F)(F)F)s5)c4F)-c4ccccc43)cc2)c1 [Example 225]
Second: Cc1cnc(N2CC3(CCOCC3)C2)c(C(=O)Nc2ccc(C(=O)N3CCc4c(sc(C(=O)Nc5ncccc5C(F)(F)F)c4F)-c4ccccc43)cc2)c1 [Example 231]
The EC50 of the first is higher: over 50 nM for the first, under 10 nM for the second.

`Cc1ccnc(NC(=O)c2sc3c(c2F)CCN(C(=O)c2ccc(NC(=O)c4cc(C)cnc4N4CC5(CCOCC5)C4)cc2)c2ccccc2-3)c1` [Example 227] and `Cc1ccc(NC(=O)c2sc3c(c2F)CCN(C(=O)c2ccc(NC(=O)c4cc(C)cnc4N4CC5(CCOCC5)C4)cc2)c2ccccc2-3)nc1` [Example 228] fall in the same range of EC50: 10 to 50 nM for the first, 10 to 50 nM for the second.

Compared with `Cc1cnc(N2CC3(CCOCC3)C2)c(C(=O)Nc2ccc(C(=O)N3CCc4c(sc(C(=O)Nc5cccc(C(F)(F)F)n5)c4F)-c4ccccc43)cc2)c1` [Example 232], `O=C(Nc1ccc(C(=O)N2CCc3c(sc(C(=O)Nc4c(F)cccc4F)c3F)-c3ccccc32)cc1)c1cc2c(nc1N1CC3(CCOCC3)C1)CCC2` [Example 233] is lower in EC50: over 50 nM for the first, under 10 nM for the second. The second is the more potent here.

`Cc1cnc(N2CC3(CCOCC3)C2)c(C(=O)Nc2ccc(C(=O)N3CCc4cc(C(=O)Nc5c(F)cccc5F)oc4-c4ccc(F)cc43)cc2)c1` [Example 234] and `Cc1cnc(N2CC3(CCOCC3)C2)c(C(=O)Nc2ccc(C(=O)N3CCc4cc(C(=O)Nc5c(F)cccc5Cl)oc4-c4ccc(F)cc43)cc2)c1` [Example 237] cannot be ordered by EC50: under 10 nM for the first, under 10 nM for the second.

`Cc1cnc(N2CC3(CCOCC3)C2)c(C(=O)Nc2ccc(C(=O)N3CCc4cc(C(=O)Nc5c(F)cc(F)cc5Cl)oc4-c4ccc(F)cc43)cc2)c1` [Example 235] and `Cc1cnc(N2CC3(CCOCC3)C2)c(C(=O)Nc2ccc(C(=O)N3CCc4cc(C(=O)Nc5c(Cl)cccc5Cl)oc4-c4ccc(F)cc43)cc2)c1` [Example 236] cannot be ordered by EC50: under 10 nM for the first, under 10 nM for the second.

First: O=C(Nc1c(F)cccc1Cl)c1cc2c(o1)-c1ccc(F)cc1N(C(=O)c1ccc(NC(=O)c3cc4c(nc3N3CC5(CCOCC5)C3)CCCC4)cc1)CC2 [Example 238]
Second: O=C(Nc1c(F)cccc1Cl)c1cc2c(o1)-c1ccc(F)cc1N(C(=O)c1ccc(NC(=O)c3cc4c(nc3N3CC5(CCOCC5)C3)CCC4)cc1)CC2 [Example 240]
The EC50 of the first is higher: 10 to 50 nM for the first, under 10 nM for the second. The second is the more potent here.

`O=C(Nc1c(F)cccc1F)c1cc2c(o1)-c1ccc(F)cc1N(C(=O)c1ccc(NC(=O)c3cc4c(nc3N3CC5(CCOCC5)C3)CCC4)cc1)CC2` [Example 239] and `O=C(Nc1c(F)cccc1F)c1cc2c(o1)-c1ccc(F)cc1N(C(=O)c1ccc(NC(=O)c3cc4c(nc3N3CC5(CCOCC5)C3)CCCC4)cc1)CC2` [Example 241] cannot be ordered by EC50: under 10 nM for the first, under 10 nM for the second.

`O=C(Nc1c(Cl)cccc1Cl)c1cc2c(o1)-c1ccc(F)cc1N(C(=O)c1ccc(NC(=O)c3cc4c(nc3N3CC5(CCOCC5)C3)CCCC4)cc1)CC2` [Example 242] and `O=C(Nc1c(Cl)cccc1Cl)c1cc2c(o1)-c1ccccc1N(C(=O)c1ccc(NC(=O)c3cc4c(nc3N3CC5(CCOCC5)C3)CCC4)cc1)CC2` [Example 251] cannot be ordered by EC50: under 10 nM for the first, under 10 nM for the second.

`Cc1cnc(N2CC3(CCOCC3)C2)c(C(=O)Nc2ccc(C(=O)N3CCc4cc(-c5nc6ccccc6[nH]5)oc4-c4ccc(F)cc43)cc2)c1` [Example 243] and `O=C(Nc1ccc(C(=O)N2CCc3cc(-c4nc5ccccc5[nH]4)oc3-c3ccc(F)cc32)cc1)c1cc2c(nc1N1CC3(CCOCC3)C1)CCC2` [Example 244] cannot be ordered by EC50: under 10 nM for the first, under 10 nM for the second.

First: O=C(Nc1ccc(C(=O)N2CCc3cc(-c4nc5ccccc5[nH]4)oc3-c3ccc(F)cc32)cc1)c1cc2c(nc1N1CC3(CCOCC3)C1)CCCC2 [Example 245]
Second: O=C(Nc1c(F)cccc1F)c1cc2c(o1)-c1ccccc1N(C(=O)c1ccc(NC(=O)c3cc4c(nc3N3CC5(CCOCC5)C3)CCC4)cc1)CC2 [Example 247]
The EC50 of the first is higher: 10 to 50 nM for the first, under 10 nM for the second.

`O=C(Nc1ccccc1)c1cc2c(o1)-c1ccccc1N(C(=O)c1ccc(NC(=O)c3cc4c(nc3N3CC5(CCOCC5)C3)CCC4)cc1)CC2` [Example 246] and `O=C(Nc1c(F)cccc1Cl)c1cc2c(o1)-c1ccccc1N(C(=O)c1ccc(NC(=O)c3cc4c(nc3N3CC5(CCOCC5)C3)CCC4)cc1)CC2` [Example 249] cannot be ordered by EC50: under 10 nM for the first, under 10 nM for the second.

`O=C(Nc1c(F)cccc1C(F)(F)F)c1cc2c(o1)-c1ccccc1N(C(=O)c1ccc(NC(=O)c3cc4c(nc3N3CC5(CCOCC5)C3)CCC4)cc1)CC2` [Example 248] and `Cc1cccc(F)c1NC(=O)c1cc2c(o1)-c1ccccc1N(C(=O)c1ccc(NC(=O)c3cc4c(nc3N3CC5(CCOCC5)C3)CCC4)cc1)CC2` [Example 250] cannot be ordered by EC50: under 10 nM for the first, under 10 nM for the second.

`Cc1cccc(C)c1NC(=O)c1cc2c(o1)-c1ccccc1N(C(=O)c1ccc(NC(=O)c3cc4c(nc3N3CC5(CCOCC5)C3)CCC4)cc1)CC2` [Example 252] and `O=C(Nc1c(F)cc(F)cc1F)c1cc2c(o1)-c1ccccc1N(C(=O)c1ccc(NC(=O)c3cc4c(nc3N3CC5(CCOCC5)C3)CCC4)cc1)CC2` [Example 253] cannot be ordered by EC50: under 10 nM for the first, under 10 nM for the second.

Molecule `Cc1ccc(C(=O)Nc2ccc(C(=O)N3CCc4cc(C(=O)Nc5c(F)cccc5F)oc4-c4ccccc43)cc2)c(N2CC3(CCOCC3)C2)n1` [Example 254] has an EC50 of under 10 nM.
